Test results published in patent US20050272040A1, “Method for increasing synaptic growth or plasticity” (priority 2002, published 2005).

Test system: individual hippocampal cells
Assay: Single-cell Arc expression (aRNA amplification, real-time RT-PCR) after patch-clamp
Type: cell-based, rat
Settings: BDNF-treated cells, electrophysiologic responders (n=7) vs non-responders (n=9), p<0.05
Procedure: FIG. 1A presents Arc expression in individual BDNF-treated cells following electrophysiological recordings and aRNA amplification. Arc transcription was measured by real-time RT-PCR and then normalized to internal GAPDH levels. The data are then expressed as a ratio of the average Arc expression in the seven control cells (expression ratio). FIG. 1B presents a correlation of Arc expression ratios to individual cell's synaptic BDNF responses. Average synaptic charge 3 to 5 minutes post-BDNF exposure expressed as a fold increase over baseline (−2 to 0 minute) was plotted against Arc expression ratios shown in FIG. 1A. Each circle represents one BDNF-treated cell. The cell number next to the circle corresponds with the cell number in FIG. 1A. Dashed line depicts a correlation coefficient indicating significance (r=0.66., p<0.005). The data are categorized into two groups of BDNF-treated cells: a cluster of non-responders (shaded) and a spread of responders (clear).
The molecular genetics of differential synaptic responses to BDNF was examined by performing single-cell transcriptional analysis after whole-cell patch-clamp. […] FIG. 1A represents Arc expression in cells exposed to BDNF relative to the average Arc expression in cells not exposed to BDNF (control) as assessed by real-time RT-PCR (expression ratio). […]

## BDNF: neurotrophin, 50 ng/ml, Preprotech; induces synaptic plasticity in hippocampal neurons
  Increase in Arc expression, responders relative to non-responders: 17 fold
